Values quoted from earlier work, collected in US8097593B1, “Lipid A and other carbohydrate ligand analogs” (Oncothyreon Inc., priority 2002, dated 2012).

Columns and labels:
[1] = not given; remark: listed apart in the source

Compound	experimental log P	immunostimulating activities, in words ([1]; compared with diphosphoryl Lipid-A (and endotoxin itself))	times less potent in eliciting toxic and pyrogenic responses ([1]; on a molar basis) [times]
CC(C)(C)C [CC(C)(C)C, 2,2-dimethylpropane]	3.11		
monophosphoryl Lipid-A		comparable	1000
